Source: PubChem BioAssay (NCI)
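Where inhibition never reached the appropriate level, the endpoint shown equals the highest concentration tested. Otherwise, values were interpolated linearly from a five-concentration, 48-hour dose response in 96-well plates. Abbreviation: GI50, concentration required for 50% inhibition of growth. At the TGI there is no net growth.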

What was measured:
Experiment in all cases: NCI tumour cell line growth inhibition, 48 h; in the data active = GI50 below about 0.43 µM; inactive = the rest
786-0 renal = system: 786-0 renal
A549 NSCLC = system: A549 NSCLC
CAKI-1 renal = system: CAKI-1 renal
CCRF-CEM leukemia = system: CCRF-CEM leukemia
COLO 205 colon = system: COLO 205 colon
DLD-1 colon = system: DLD-1 colon
DMS 114 small cell lung = system: DMS 114 small cell lung
DMS 273 small cell lung = system: DMS 273 small cell lung
EKVX NSCLC = system: EKVX NSCLC
HCC-2998 colon = system: HCC-2998 colon
HCT-116 colon = system: HCT-116 colon
HCT-15 colon = system: HCT-15 colon
HT29 colon = system: HT29 colon
IGROV1 ovarian = system: IGROV1 ovarian
KM12 colon = system: KM12 colon
KM20L2 colon = system: KM20L2 colon
LOX IMVI melanoma = system: LOX IMVI melanoma
M14 melanoma = system: M14 melanoma
MALME-3M melanoma = system: MALME-3M melanoma
NCI-H226 lung = system: NCI-H226 lung
NCI-H23 lung = system: NCI-H23 lung
NCI-H460 lung = system: NCI-H460 lung
OVCAR-3 ovarian = system: OVCAR-3 ovarian
OVCAR-4 ovarian = system: OVCAR-4 ovarian
OVCAR-5 ovarian = system: OVCAR-5 ovarian
OVCAR-8 ovarian = system: OVCAR-8 ovarian
RXF 393 renal = system: RXF 393 renal
SF-268 CNS = system: SF-268 CNS
SF-295 CNS = system: SF-295 CNS
SF-539 CNS = system: SF-539 CNS
SK-MEL-2 melanoma = system: SK-MEL-2 melanoma
SK-MEL-28 melanoma = system: SK-MEL-28 melanoma
SK-MEL-5 melanoma = system: SK-MEL-5 melanoma
SK-OV-3 ovarian = system: SK-OV-3 ovarian
SN12C renal = system: SN12C renal
SNB-19 CNS = system: SNB-19 CNS
SNB-75 CNS = system: SNB-75 CNS
SR leukemia = system: SR leukemia
SW-620 colon = system: SW-620 colon
TK-10 renal = system: TK-10 renal
U251 CNS = system: U251 CNS
UACC-257 melanoma = system: UACC-257 melanoma
UACC-62 melanoma = system: UACC-62 melanoma
UO-31 renal = system: UO-31 renal
A498 renal = system: A498 renal
ACHN renal = system: ACHN renal
BT-549 breast = system: BT-549 breast
DU-145 prostate = system: DU-145 prostate
HL-60(TB) leukemia = system: HL-60(TB) leukemia
HOP-62 NSCLC = system: HOP-62 NSCLC
HOP-92 NSCLC = system: HOP-92 NSCLC
HS 578T breast = system: HS 578T breast
K-562 leukemia = system: K-562 leukemia
MCF7 breast = system: MCF7 breast
MDA-MB-231 breast = system: MDA-MB-231 breast
MDA-MB-435 = system: MDA-MB-435
MDA-N = system: MDA-N
MOLT-4 leukemia = system: MOLT-4 leukemia
NCI-H522 lung = system: NCI-H522 lung
NCI/ADR-RES ovarian = system: NCI/ADR-RES ovarian
PC-3 prostate = system: PC-3 prostate
RPMI-8226 leukemia = system: RPMI-8226 leukemia
T-47D breast = system: T-47D breast

[Cl-].[Cl-].[Cl-].[O-]c1cccc2cccnc12.[O-]c1cccc2cccnc12.[O]=[Mo]
5.48 µM: TGI (M14 melanoma)
11.7 µM: TGI (NCI-H460 lung)
11.5 µM: TGI (HT29 colon)
8.38 µM: TGI (NCI-H23 lung)
active: GI50 (CCRF-CEM leukemia) 350 nM
4.99 µM: TGI (MALME-3M melanoma)
> 100 µM: TGI (A549 NSCLC) | TGI (CAKI-1 renal) | TGI (CCRF-CEM leukemia) | TGI (DLD-1 colon) | TGI (HCT-15 colon) | TGI (OVCAR-3 ovarian) | TGI (SF-539 CNS) | TGI (SN12C renal) | TGI (SNB-19 CNS) | TGI (SNB-75 CNS) | TGI (SR leukemia) | TGI (SW-620 colon) | TGI (TK-10 renal)
35 µM: TGI (IGROV1 ovarian)
8.6 µM: TGI (OVCAR-5 ovarian)
12.3 µM: TGI (OVCAR-8 ovarian)
inactive: GI50 (786-0 renal) 18.5 µM | GI50 (A549 NSCLC) 3.59 µM | GI50 (CAKI-1 renal) 20.6 µM | GI50 (COLO 205 colon) 4.6 µM | GI50 (EKVX NSCLC) 15.4 µM | GI50 (HCC-2998 colon) 2410 nM | GI50 (HCT-116 colon) 2580 nM | GI50 (HCT-15 colon) 2390 nM | GI50 (HT29 colon) 2880 nM | GI50 (KM12 colon) 448 nM | GI50 (LOX IMVI melanoma) 2330 nM | GI50 (M14 melanoma) 1810 nM | GI50 (MALME-3M melanoma) 2250 nM | GI50 (NCI-H226 lung) 2280 nM | GI50 (NCI-H23 lung) 2600 nM | GI50 (NCI-H460 lung) 2520 nM | GI50 (OVCAR-3 ovarian) 6.88 µM | GI50 (OVCAR-4 ovarian) 3.9 µM | GI50 (OVCAR-5 ovarian) 2850 nM | GI50 (OVCAR-8 ovarian) 2530 nM | GI50 (RXF 393 renal) 2000 nM | GI50 (SF-268 CNS) 6.33 µM | GI50 (SF-295 CNS) 2800 nM | GI50 (SF-539 CNS) 7.34 µM | GI50 (SK-MEL-2 melanoma) 3.37 µM | GI50 (SK-MEL-28 melanoma) 2430 nM | GI50 (SK-OV-3 ovarian) 15.1 µM | GI50 (SN12C renal) 6.71 µM | GI50 (SNB-19 CNS) 4.87 µM | GI50 (SNB-75 CNS) 5.08 µM | GI50 (SW-620 colon) 1920 nM | GI50 (TK-10 renal) 15.2 µM | GI50 (U251 CNS) 3.57 µM | GI50 (UACC-257 melanoma) 2100 nM | GI50 (UACC-62 melanoma) 2490 nM | GI50 (UO-31 renal) 4.09 µM
78.4 µM: TGI (EKVX NSCLC)
3.13 µM: TGI (DMS 114 small cell lung)
18.1 µM: TGI (SK-MEL-2 melanoma)
14.2 µM: TGI (NCI-H226 lung)
55.2 µM: TGI (SF-268 CNS)
7.41 µM: TGI (UACC-62 melanoma)
17.2 µM: TGI (SF-295 CNS)
2080 nM: TGI (KM12 colon)
36.4 µM: TGI (HCT-116 colon)
40.5 µM: TGI (U251 CNS)
5.69 µM: TGI (HCC-2998 colon)
3.89 µM: TGI (SK-MEL-5 melanoma)
70.6 µM: TGI (KM20L2 colon)
39.6 µM: TGI (SK-OV-3 ovarian)
47 µM: TGI (OVCAR-4 ovarian)
22 µM: TGI (LOX IMVI melanoma)
24.1 µM: TGI (UO-31 renal)
9.41 µM: TGI (SK-MEL-28 melanoma)
4.41 µM: TGI (DMS 273 small cell lung)
4.89 µM: TGI (RXF 393 renal)
99.8 µM: TGI (786-0 renal)
6.69 µM: TGI (UACC-257 melanoma)

Cn1c(=O)[nH]c2nccnc2c1=O
> 10000 nM: TGI (KM12 colon)
> 10 µM: TGI (786-0 renal) | TGI (A498 renal) | TGI (A549 NSCLC) | TGI (ACHN renal) | TGI (BT-549 breast) | TGI (CAKI-1 renal) | TGI (CCRF-CEM leukemia) | TGI (COLO 205 colon) | TGI (DU-145 prostate) | TGI (EKVX NSCLC) | TGI (HCC-2998 colon) | TGI (HCT-116 colon) | TGI (HCT-15 colon) | TGI (HL-60(TB) leukemia) | TGI (HOP-62 NSCLC) | TGI (HOP-92 NSCLC) | TGI (HS 578T breast) | TGI (HT29 colon) | TGI (IGROV1 ovarian) | TGI (K-562 leukemia) | TGI (LOX IMVI melanoma) | TGI (M14 melanoma) | TGI (MALME-3M melanoma) | TGI (MCF7 breast) | TGI (MDA-MB-231 breast) | TGI (MDA-MB-435) | TGI (MDA-N) | TGI (MOLT-4 leukemia) | TGI (NCI-H226 lung) | TGI (NCI-H23 lung) | TGI (NCI-H460 lung) | TGI (NCI-H522 lung) | TGI (NCI/ADR-RES ovarian) | TGI (OVCAR-3 ovarian) | TGI (OVCAR-4 ovarian) | TGI (OVCAR-5 ovarian) | TGI (OVCAR-8 ovarian) | TGI (PC-3 prostate) | TGI (RPMI-8226 leukemia) | TGI (RXF 393 renal) | TGI (SF-268 CNS) | TGI (SF-295 CNS) | TGI (SF-539 CNS) | TGI (SK-MEL-2 melanoma) | TGI (SK-MEL-28 melanoma) | TGI (SK-MEL-5 melanoma) | TGI (SK-OV-3 ovarian) | TGI (SN12C renal) | TGI (SNB-19 CNS) | TGI (SNB-75 CNS) | TGI (SR leukemia) | TGI (SW-620 colon) | TGI (T-47D breast) | TGI (TK-10 renal) | TGI (U251 CNS) | TGI (UACC-257 melanoma) | TGI (UACC-62 melanoma) | TGI (UO-31 renal)
